Results on 20 compounds are retold here after ChEMBL document CHEMBL4321841, “Development of small molecule inhibitors targeting NLRP3 inflammasome pathway for inflammatory diseases” (Eur J Med Chem, 2020).

Data set [1] in a line: Half life in C57BL/6 mouse plasma at 3 mg/kg, iv or 20 mg/kg, po. It is filed as ADME, organism-based. To be noted: in vivo.
Data set [2] has as its target T1, NACHT, LRR and PYD domains-containing protein 3 (Mus musculus, UniProt Q8R4B8). The data set is described as follows: Inhibition of NLRP3 inflammasome activation in LPS-primed mouse bone marrow derived macrophages assessed as reduction in IL-1beta level preincubated for 30 mins followed by addition of ATP and measured after 1 hr by ELISA method.
Data set [3] has as its target T2, NACHT, LRR and PYD domains-containing protein 3 (Homo sapiens, UniProt Q96P20). The data set is described as follows: Inhibition of NLRP3 inflammasome activation in PMA differentiated human THP1 cells assessed as reduction in IL-1beta level at 10 uM preincubated for 30 mins followed by addition of MSU and meaured after 6 hrs by ELISA method relative to control.

The target in data set [4] is T1, NACHT, LRR and PYD domains-containing protein 3. The data set is described as follows: Inhibition of NLRP3 inflammasome activation in LPS-primed mouse NG5 cells assessed as reduction in IL-1beta level incubated for 15followed by addition of ATP by ELISA method. The format is cell-based.
Data set [5] deals with T3, Peroxiredoxin-1 (Homo sapiens, UniProt Q06830).
T3 sequence (Q06830 whole entry): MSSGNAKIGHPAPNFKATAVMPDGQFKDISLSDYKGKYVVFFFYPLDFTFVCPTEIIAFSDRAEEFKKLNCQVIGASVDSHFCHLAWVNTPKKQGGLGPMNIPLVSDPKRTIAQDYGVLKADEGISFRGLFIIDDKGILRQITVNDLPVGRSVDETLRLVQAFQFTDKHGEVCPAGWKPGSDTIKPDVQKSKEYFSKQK
The data set is described as follows: Inhibition of PRDX1 in human PMA-differentiated LPS-stimulated THP1 cells assessed as reduction in NLRP3 inflammasome activation preincubated for 1 hr followed by addition of ATP and mesured after 1 hr by ELISA.

Data set [6] relates to THP-1. The data set is described as follows: Inhibition of pyroptosis in PMA-differentiated and LPSprimed human THP1 cells assessed as LDH activity at 10 uM preincubated for 1 hr followed by addition of ATP and measured after 1 hr by CytoTox 96 Non-Radioactive Cytotoxicity Assay relative to control. The format is functional.
Data set [7] addresses T2, NACHT, LRR and PYD domains-containing protein 3. The data set is described as follows: Inhibition of recombinant human NLRP3 ATPase assessed as reduction in ADP formation preincubated for 10 mins followed by ATP addition and measured after 40 mins by ADP-Glo assay.
Data set [8] has as its system THP-1. The data set is described as follows: Inhibition of pyroptosis in PMA-differentiated and LPS-primed human THP1 cells assessed as LDH activity preincubated for 1 hr followed by addition of ATP and measured after 1 hr by CytoTox 96 Non-Radioactive Cytotoxicity Assay. It is filed as functional, cell-based.
For data set [9], the target named is T1, NACHT, LRR and PYD domains-containing protein 3. The data set is described as follows: Inhibition of NLRP3 inflammasome activation in mouse J774A.1 cells assessed as reduction in IL-1beta level preincubated for 2 hrs followed by LPS-stimulation and further incubated for 5.5 hrs and subsequently ATP addition and measured after 30 mins by ELISA method. The format is cell-based.

Data set [10] addresses NACHT, LRR and PYD domains-containing protein 3 (Mus musculus) (UniProt Q8R4B8). The data set is described as follows: Inhibition of NLRP3 inflammasome activation in LPS-primed mouse J774A.1 cells assessed as reduction in IL-1beta level at 10 uM preincubated for 1 hr followed by addition of ATP and measured after 30 mins by ELISA method relative to control.
The target in data set [11] is T2, NACHT, LRR and PYD domains-containing protein 3. The data set is described as follows: Inhibition of NLRP3 inflammasome activation in PMA differentiated human THP1 cells assessed as reduction in IL-1beta level preincubated for 30 mins followed by addition of MSU and meaured after 6 hrs by ELISA method relative to control.
The target is the same in data set [12]. The data set is described as follows: Inhibition of NLRP3 inflammasome activation in LPS-stimulated human THP1 cells assessed as reduction in IL-1beta level at 10 uM preincubated for 1 hr followed by addition of ATP and measured after 1 hr by ELISA method relative to control.
For data set [13], the target named is T1, NACHT, LRR and PYD domains-containing protein 3. The data set is described as follows: Inhibition of NLRP3 inflammasome activation in LPS-primed mouse J774A.1 cells assessed as reduction in IL-1beta level preincubated for 1 hr followed by addition of ATP and measured after 30 mins by ELISA method.
The target of data set [14] is T2, NACHT, LRR and PYD domains-containing protein 3. The data set is described as follows: Inhibition of NLRP3 inflammasome activation in LPS-primed human THP1 cells assessed as reduction in IL-1beta level at 20 uM preincubated for 1 hr followed by addition of ATP and measured after 3 hrs by ELISA method relative to control.
Data set [15] in a line: Cmax in mouse at 1000 mg, po administered once daily for 8 days. The format is ADME, organism-based. Set-up: dose 1000 mg, route oral. To be noted: in vivo.
In data set [16] the target is T1, NACHT, LRR and PYD domains-containing protein 3. The data set is described as follows: Inhibition of NLRP3 inflammasome activation in LPS-primed mouse J774A.1 cells assessed as reduction in IL-1beta level preincubated for 30 mins followed by addition of nigericin and measured after 40 mins by ELISA.
For data set [17] the target is unchanged. The data set is described as follows: Inhibition of NLRP3 inflammasome activation in LPS-primed mouse bone marrow derived macrophages incubated for 1 hr followed by addition of ATP and measured after 1 hr by immunoblotting analysis.
Data set [18] addresses T2, NACHT, LRR and PYD domains-containing protein 3. The data set is described as follows: Inhibition of NLRP3 inflammasome activation in LPS-primed human THP1 cells assessed as reduction in IL-1beta level preincubated for 1 hr followed by addition of ATP and measured after 1 hr by ELISA method.
In data set [19] the target is T1, NACHT, LRR and PYD domains-containing protein 3. The data set is described as follows: Inhibition of NLRP3 inflammasome activation in LPS-primed C57BL/6 mouse bone marrow derived macrophages preincubated for 15 mins followed by addition of ATP and measured after 1 hr by ELISA.

T2 sequence (Q96P20 whole entry, the tested form may be a part): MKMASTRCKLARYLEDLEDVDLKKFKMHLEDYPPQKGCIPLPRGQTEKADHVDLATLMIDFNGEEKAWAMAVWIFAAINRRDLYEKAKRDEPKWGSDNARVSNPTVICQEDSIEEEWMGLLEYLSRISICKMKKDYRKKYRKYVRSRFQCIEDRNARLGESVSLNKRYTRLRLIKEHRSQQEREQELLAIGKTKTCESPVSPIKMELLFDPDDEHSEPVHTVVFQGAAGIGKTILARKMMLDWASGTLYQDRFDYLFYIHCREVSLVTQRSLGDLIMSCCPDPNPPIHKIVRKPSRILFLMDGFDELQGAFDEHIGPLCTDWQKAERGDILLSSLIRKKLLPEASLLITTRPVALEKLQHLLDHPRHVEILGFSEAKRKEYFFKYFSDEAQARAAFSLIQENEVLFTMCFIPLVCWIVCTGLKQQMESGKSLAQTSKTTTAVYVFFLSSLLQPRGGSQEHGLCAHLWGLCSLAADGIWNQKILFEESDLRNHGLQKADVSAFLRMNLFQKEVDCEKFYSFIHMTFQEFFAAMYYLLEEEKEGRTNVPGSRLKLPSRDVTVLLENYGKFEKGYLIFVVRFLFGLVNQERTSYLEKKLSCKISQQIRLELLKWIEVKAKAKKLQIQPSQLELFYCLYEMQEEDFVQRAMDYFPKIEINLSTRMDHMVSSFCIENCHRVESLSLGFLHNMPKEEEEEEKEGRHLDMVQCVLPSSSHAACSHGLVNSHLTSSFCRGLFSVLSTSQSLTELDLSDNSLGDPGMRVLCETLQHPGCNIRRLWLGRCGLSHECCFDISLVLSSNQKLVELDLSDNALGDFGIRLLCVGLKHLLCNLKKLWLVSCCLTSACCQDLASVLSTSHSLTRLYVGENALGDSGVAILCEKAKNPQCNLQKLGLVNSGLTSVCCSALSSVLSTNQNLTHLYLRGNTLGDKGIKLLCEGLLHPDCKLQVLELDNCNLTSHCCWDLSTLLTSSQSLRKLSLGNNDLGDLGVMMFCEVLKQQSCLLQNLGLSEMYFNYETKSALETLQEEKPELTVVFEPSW
T1 sequence (Q8R4B8 whole entry, the tested form may be a part): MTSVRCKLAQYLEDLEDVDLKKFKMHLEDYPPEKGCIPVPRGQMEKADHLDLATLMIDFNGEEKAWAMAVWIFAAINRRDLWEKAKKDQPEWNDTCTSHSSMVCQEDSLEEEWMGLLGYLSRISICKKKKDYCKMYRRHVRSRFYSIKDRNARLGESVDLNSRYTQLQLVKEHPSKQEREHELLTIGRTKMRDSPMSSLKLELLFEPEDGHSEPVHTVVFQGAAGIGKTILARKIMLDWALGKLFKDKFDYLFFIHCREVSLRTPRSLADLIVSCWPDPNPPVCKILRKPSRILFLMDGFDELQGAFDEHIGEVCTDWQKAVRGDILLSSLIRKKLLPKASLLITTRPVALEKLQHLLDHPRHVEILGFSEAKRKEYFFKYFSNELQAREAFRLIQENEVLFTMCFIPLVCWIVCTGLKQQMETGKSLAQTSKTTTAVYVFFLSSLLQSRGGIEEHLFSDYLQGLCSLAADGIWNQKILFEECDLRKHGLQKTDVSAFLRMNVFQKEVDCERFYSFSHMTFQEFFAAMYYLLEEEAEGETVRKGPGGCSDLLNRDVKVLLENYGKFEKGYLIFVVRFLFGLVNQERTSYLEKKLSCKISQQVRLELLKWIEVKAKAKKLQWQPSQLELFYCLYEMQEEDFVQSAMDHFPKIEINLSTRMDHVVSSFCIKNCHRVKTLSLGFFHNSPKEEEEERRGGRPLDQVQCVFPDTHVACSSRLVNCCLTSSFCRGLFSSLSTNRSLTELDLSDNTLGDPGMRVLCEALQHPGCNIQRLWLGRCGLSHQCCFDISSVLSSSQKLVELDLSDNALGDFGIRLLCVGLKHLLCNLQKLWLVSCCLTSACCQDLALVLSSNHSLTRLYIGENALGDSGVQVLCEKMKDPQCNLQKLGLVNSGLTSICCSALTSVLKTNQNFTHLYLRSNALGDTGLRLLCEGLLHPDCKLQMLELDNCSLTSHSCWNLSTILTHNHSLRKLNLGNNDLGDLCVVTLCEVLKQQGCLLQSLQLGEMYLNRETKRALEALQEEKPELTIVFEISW
Chain of NACHT, LRR and PYD domains-containing protein 3 (Mus musculus) (Q8R4B8 whole entry, the tested form may be a part): as above

Compound `CC(C)(O)c1coc(S(=O)(=O)NC(=O)Nc2c3c(cc4c2CCC4)CCC3)c1` came in with a t1/2 in data set [1] of 3.27 h.

In the case of `CCC1=C(C)CN(C(=O)NCCc2ccc(S(=O)(=O)NC(=O)Nc3c4c(cc5c3CCC5)CCC4)cc2)C1=O`, the IC50 in data set [2] was 0.042 µM.

Consider `O=c1cc(-c2ccc(Cl)c(Cl)c2)oc2ccccc12`, for which, in data set [3], the inhibition turned out to be 49.5%.

For the compound `Cc1ccc(S(=O)(=O)/C=C/C#N)cc1`, the IC50 in data set [4] came to 12 µM.

In the case of `O=C1/C(=C/c2ccccn2)CNC/C1=C\c1ccccn1`, the IC50 in data set [5] turned out to be 0.95 µM.

Regarding `C=C(Cc1ccccc1Cl)C(=O)NCCc1ccc(S(N)(=O)=O)cc1`, the inhibition at 10 µM in [6] amounted to 45.8%. Further, the figures for the IC50 in data set [7] and in data set [8] were 74 µM and 23.2 µM, respectively.

With `COc1ccc(Cl)cc1C(=O)NCCc1ccc(S(=O)(=O)NO)cc1`, the IC50 in data set [9] turned out to be 8.45 µM.

`COc1ccc(-c2nc(O)c3ccccc3n2)cc1`: in [10], the inhibition worked out at 28.8%.

As to `O=c1cc(-c2ccc(O)cc2)oc2cc(O)cc(O)c12` [APIGENIN], in data set [3], the inhibition was 42.9%. Further, the IC50 in data set [11] was found to be 10 µM.

Consider `c1cc2[nH]c(-c3cscn3)nc2cn1`, for which, in [12], the inhibition turned out to be 30%.

Take `COc1ccc2c(c1)C(=O)N(c1ccccc1)C2=O`: the IC50 in data set [13] was 5 µM.

On to `O=[N+]([O-])c1ccc2[nH]c(-c3cscn3)nc2c1`, for which the inhibition in data set [12] was determined as 30%.

Turning to `CCCCC/C=C/C(=O)CCc1ccc(O)c(OC)c1`, the inhibition in data set [14] is 100%.

In [15], `CS(=O)(=O)CCC#N` [DAPANSUTRILE] showed a Cmax of 311 µM. Moreover, in data set [16], the IC50 is 0.001 µM.

As for `CC1CC(=O)c2s/c(=N\C3CCCCC3)oc2C1` (centres undefined), the IC50 in data set [17] turned out to be 1.28 µM.

As to `CCCCCCC/C=C/C(=O)CCc1ccc(O)c(OC)c1`, in data set [14], the inhibition stood at 60.3%.

As to `CCn1c(-c2ccccc2)nc2cc(C)ccc21`, in data set [18], the half-inhibitory concentration (IC50) came to 10 µM.

The compound `Cc1cccc(Nc2ccccc2C(=O)O)c1C` [MEFENAMIC ACID] showed an IC50 in data set [19] of 25 µM.

Take `O=c1[nH]c(-c2ccc(C(F)(F)F)cc2)nc2ccccc12`: the inhibition in data set [10] is 21.3%.

As to `O=c1[nH]c(-c2ccc([N+](=O)[O-])cc2)nc2ccccc12`, the IC50 in data set [13] came out at 5 µM.
